Assay results: patent publication EP0973746B1, “SUBSTITUTED 3-CYANO QUINOLINES” (Wyeth Holdings Corporation, priority 1997, dated 1998)
Values after ≈ are worked out from the molar mass of the structure shown. Where two headings read alike, the source gives them in different places.

Tests used:
[1] = system: HTB161; test: Inhibition of cancer cell growth as measured by cell number, HTB161; format: cell-based; conditions: Homo sapiens, 48 h, read-out: IC50 HTB161
[2] = system: CCRF-CFM; test: Inhibition of cancer cell growth as measured by cell number, CCRF-CFM; format: cell-based; conditions: Homo sapiens, 48 h, read-out: IC50 CCRF-CFM
[3] = system: PC3; test: Inhibition of cancer cell growth as measured by cell number, PC3; format: cell-based; conditions: Homo sapiens, PC-3, 48 h, read-out: IC50 PC3
[4] = system: A549; test: Inhibition of cancer cell growth as measured by cell number, A549; format: cell-based; conditions: Homo sapiens, A549, 48 h, read-out: IC50 A549
[5] = system: SKBR3; test: Inhibition of cancer cell growth as measured by cell number, SKBR3; format: cell-based, human; conditions: Homo sapiens, SK-BR-3, 48 h, read-out: IC50 SKBR3, cell number, Sulforhodamine B, 48 hours exposure;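 also: SK-BR-3 cells were selected as a line overexpressing HER2/neu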
Text: (§1) The cell lines were chosen since they overexpressed epidermal growth factor receptor (EGFR) (i.e. A431) or HER2/neu (SKBR3), or had little to no expression of the these receptors (SW620, LOX, MCF7).

[6] = system: MCF7; test: Inhibition of cancer cell growth as measured by cell number, MCF7; format: cell-based, human; conditions: Homo sapiens, MCF7, 48 h, read-out: IC50 MCF7, cell number, Sulforhodamine B, 48 hours exposure;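 also: MCF7 was included as a line with little or no EGFR or HER2/neu expression, in contrast to the receptor-overexpressing lines of the panel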
Text: as §1

[7] = system: A2780DDP; test: Inhibition of cancer cell growth as measured by cell number, A2780DDP; format: cell-based; conditions: Homo sapiens, 48 h, read-out: IC50 A2780DDP
[8] = system: A27805; test: Inhibition of cancer cell growth as measured by cell number, A27805; format: cell-based; conditions: Homo sapiens, 48 h, read-out: IC50 A27805
[9] = molecular target: recombinant human MEK 1 (MAPKK) and recombinant human ERK2 (MAPK); test: Mitogen Activated Protein Kinase (MAPK) assay, two component coupled MEK 1 / ERK2; format: biochemical; conditions: separate entries for the same compound = evaluated more than one time;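 also: MEK 1-activated ERK2 phosphorylates MBP or Myc peptide with 33P-ATP, filter capture and scintillation counting, inhibitor preincubated with ERK2 30 min at 0 °C, inhibition relative to uninhibited control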
Experimental: To evaluate inhibitors of the MAP (mitogen activated protein) kinase a two component coupled standard pharmacological test procedure, which measures phosphorylation of a serine/threonine residue in an appropriate sequence in the substrate in the presence and absence of a putative inhibitor, was used. Recombinant human MEK 1 (MAPKK) was first used to activate recombinant human ERK2 (MAPK) and the activated MAPK (ERK) was incubated with substrate (MBP peptide or MYC peptide) in the presence of ATP, Mg^+2 and radiolabeled ^33P ATP. The phosphorylated peptide was captured on a P 81 phosphocellulose filter (paper filter or embedded in microtiter plate) washed and counted by scintillation methods.
The peptide substrates used in the assay are MBP, peptide substrate ([sequence]), or synthetic Myc substrate, ([sequence]•5 TFA. The recombinant enzymes used were prepared as GST fusion proteins of human ERK 2 and human MEK 1. Inhibitor samples were prepared as 10X stocks in 10% DMSO and an appropriate aliquot was used to deliver either 10 ug/ml for a single point screening dose or 100, 10, 1, and 0.1 uM final concentration for a dose response curve. Final DMSO concentrations were less than or equal to 1%.
The reaction was run as follows in 50 mM Tris kinase buffer, pH 7.4 in a reaction volume of 50 ul. The appropriate volume of kinase buffer and inhibitor sample was added to the tube. Appropriate dilution of enzyme was delivered to give 2-5 ug recombinant MAPK (Erk ) per tube. The inhibitor was incubated with MAPK (Erk) for 30 min at 0 deg. […] Recombinant Mek (MAPKK) ( 0.5-2.5 ug) or fully activated Mek (0.05-0.1 units) was added to activate the Erk and incubated for 30 min at 30° C. […] Samples were incubated at 30°C for 30 minutes and the reaction was stopped by adding 25 µl of ice cold 10 %TCA .After samples were chilled on ice for 30 min, 20 µl of sample was transferred onto P 81 phosphocellulose filter paper or appropriate MTP with embedded P 81 filter. Filter papers or MTP were washed 2 times with a large volume of 1% acetic acid, then 2 times with water. The filters or MTP were briefly air dried before addition of scintillant and samples were counted in the appropriate scintillation counter set up for reading ^33P isotope.
The raw data was captured as cpm. Sample replicates were averaged and corrected for background count. Mean cpm data was tabulated by group and % inhibition by a test compound was calculated as (corrected cpm control- corrected. cpm sample/control) X 100 = % inhibition.

[10] = system: NEC; test: Inhibition of cancer cell growth as measured by cell number, NEC; format: cell-based; conditions: Homo sapiens, 48 h, read-out: IC50 NEC
[11] = system: CACO2; test: Inhibition of cancer cell growth as measured by cell number, CACO2; format: cell-based; conditions: Homo sapiens, Caco-2, 48 h, read-out: IC50 CACO2
[12] = system: HL60; test: Inhibition of cancer cell growth as measured by cell number, HL60; format: cell-based; conditions: Homo sapiens, HL-60, 48 h, read-out: IC50 HL60
[13] = system: CCL228; test: Inhibition of cancer cell growth as measured by cell number, CCL228; format: cell-based; conditions: Homo sapiens, 48 h, read-out: IC50 CCL228
[14] = system: T47D; test: Inhibition of cancer cell growth as measured by cell number, T47D; format: cell-based; conditions: Homo sapiens, 48 h, read-out: IC50 T47D
[15] = system: LX1; test: Inhibition of cancer cell growth as measured by cell number, LX1; format: cell-based; conditions: Homo sapiens, LX-1, 48 h, read-out: IC50 LX1
[16] = system: SW620; test: Inhibition of cancer cell growth as measured by cell number, SW620; format: cell-based, human; conditions: Homo sapiens, SW-620, 48 h, read-out: IC50 SW620, cell number, Sulforhodamine B, 48 hours exposure;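 also: SW620 was included as a cell line with little or no EGFR or HER2/neu expression, in contrast to receptor-overexpressing lines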
Text: as §1

[17] = system: DU145; test: Inhibition of cancer cell growth as measured by cell number, DU145; format: cell-based; conditions: Homo sapiens, DU-145, 48 h, read-out: IC50 DU145
[18] = system: LNCAP; test: Inhibition of cancer cell growth as measured by cell number, LNCAP; format: cell-based; conditions: Homo sapiens, 48 h, read-out: IC50 LNCAP
[19] = system: A431; test: Inhibition of cell growth by incorporation of [3H]-thymidine, A431; format: cell-based, human; conditions: Homo sapiens, A-431, read-out: IC50 A431
Experimental: Representative compounds of this invention were evaluated for their ability to inhibit the growth of the cell lines described below in vitro. The inhibition is quantitated by measuring the decrease in the incorporation of radio-labeled thymidine when the cells are grown in the presence of the inhibitor. […] Cells were routinely grown in a humidified incubator in 5% CO2 in air.
Cells were seeded at 10,000 cells/well in 96 well plates in complete media and allowed to grow to log phase. At this stage the complete media was replaced with media containing 0.5% FBS (for cells growing in 10% FBS) or media lacking epidermal growth factor (EGF) (for cells growing in serum free media). […] Media with test compound was then removed and complete media was added back. The cells were allowed to grow for 18 hours. This is followed by incubation in [^3H]thymidine (1mCi/ml in serum/EGF media) for 4 hours. Cells were lysed in 0.5 M NaOH for at least 30 min at 37°C and radioactivity analyzed.
The % inhibition of the compound evaluated was determined for at least three different concentrations and the IC50 value evaluated from the dose response curve. […] CPM(control) is in units of counts per minute and is a number expressing the amount of [^3H]thymidine incorporated onto the DNA when cells are grown in the absence of test compound as measured by liquid scintillation counting.

[20] = system: LOX; test: Inhibition of cancer cell growth as measured by cell number, LOX; format: cell-based, human; conditions: Homo sapiens, LOX, 48 h, read-out: IC50 LOX, cell number, Sulforhodamine B, 48 hours exposure;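 also: LOX cells served as a line with low or absent EGFR and HER2/neu expression, in contrast to receptor-overexpressing lines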
Text: as §1

[21] = system: COLO205; test: Inhibition of cancer cell growth as measured by cell number, COLO205; format: cell-based; conditions: Homo sapiens, COLO 205, 48 h, read-out: IC50 COLO205
[22] = system: A431; test: Inhibition of cancer cell growth as measured by cell number, A431; format: cell-based, human; conditions: Homo sapiens, A-431, 48 h, read-out: IC50 A431, cell number, Sulforhodamine B, 48 hours exposure;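 also: human A431 line, picked because it overexpresses epidermal growth factor receptor (EGFR)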
Text: as §1

[23] = system: LS174T; test: Inhibition of cancer cell growth as measured by cell number, LS174T; format: cell-based; conditions: Homo sapiens, 48 h, read-out: IC50 LS174T
[24] = system: MIP; test: Inhibition of cancer cell growth as measured by cell number, MIP; format: cell-based; conditions: Homo sapiens; cell number, Sulforhodamine B, 48 hours exposure; Table 4; read-out: IC50 MIP
[25] = system: B7474; test: Inhibition of cancer cell growth as measured by cell number, B7474; format: cell-based; conditions: Homo sapiens, 48 h, read-out: IC50 B7474
[26] = system: SW948; test: Inhibition of cancer cell growth as measured by cell number, SW948; format: cell-based; conditions: Homo sapiens, SW948, 48 h, read-out: IC50 SW948
[27] = molecular target: epidermal growth factor receptor kinase (Homo sapiens, UniProt P00533); test: biochemical
Sequence of epidermal growth factor receptor kinase (P00533 25-1210): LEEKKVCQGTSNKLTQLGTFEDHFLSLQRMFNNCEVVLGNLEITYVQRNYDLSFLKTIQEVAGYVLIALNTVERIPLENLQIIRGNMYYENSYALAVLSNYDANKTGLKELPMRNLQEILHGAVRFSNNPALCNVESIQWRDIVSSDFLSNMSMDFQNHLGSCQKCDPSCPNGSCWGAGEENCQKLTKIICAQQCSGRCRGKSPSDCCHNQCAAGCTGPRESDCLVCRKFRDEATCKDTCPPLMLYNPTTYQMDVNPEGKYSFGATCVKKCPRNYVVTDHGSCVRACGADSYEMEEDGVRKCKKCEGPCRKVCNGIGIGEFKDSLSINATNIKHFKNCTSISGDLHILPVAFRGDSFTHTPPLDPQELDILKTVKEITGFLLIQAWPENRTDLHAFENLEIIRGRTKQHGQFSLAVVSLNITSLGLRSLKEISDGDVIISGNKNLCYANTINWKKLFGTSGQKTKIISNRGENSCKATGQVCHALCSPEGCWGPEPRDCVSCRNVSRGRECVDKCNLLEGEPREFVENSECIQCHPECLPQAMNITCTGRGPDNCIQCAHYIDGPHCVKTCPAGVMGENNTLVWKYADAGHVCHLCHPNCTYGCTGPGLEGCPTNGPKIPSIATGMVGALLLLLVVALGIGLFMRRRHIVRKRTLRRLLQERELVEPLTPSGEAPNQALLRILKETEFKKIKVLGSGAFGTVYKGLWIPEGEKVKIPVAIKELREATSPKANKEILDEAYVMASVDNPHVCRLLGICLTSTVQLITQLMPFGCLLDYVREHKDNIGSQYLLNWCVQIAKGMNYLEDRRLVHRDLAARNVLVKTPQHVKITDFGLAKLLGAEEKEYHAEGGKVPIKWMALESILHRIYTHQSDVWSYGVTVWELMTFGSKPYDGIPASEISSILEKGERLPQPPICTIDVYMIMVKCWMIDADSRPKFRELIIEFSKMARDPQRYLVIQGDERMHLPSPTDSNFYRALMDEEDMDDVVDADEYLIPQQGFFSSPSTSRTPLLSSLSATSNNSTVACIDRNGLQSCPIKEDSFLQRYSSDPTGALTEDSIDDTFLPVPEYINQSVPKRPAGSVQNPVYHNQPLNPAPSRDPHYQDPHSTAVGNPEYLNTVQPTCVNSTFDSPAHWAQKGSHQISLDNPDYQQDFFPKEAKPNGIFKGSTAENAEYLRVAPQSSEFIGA

[28] = system: HCT15; test: Inhibition of cancer cell growth as measured by cell number, HCT15; format: cell-based; conditions: Homo sapiens, HCT-15, 48 h, read-out: IC50 HCT15
[29] = system: CX1; test: Inhibition of cancer cell growth as measured by cell number, CX1; format: cell-based; conditions: Homo sapiens, CX-1, 48 h, read-out: IC50 CX1

Compound | IC50 [1] [µg/mL] | IC50 [2] [µg/mL] | IC50 [3] [µg/mL] | IC50 [4] [µg/mL] | IC50 ([5]; Table 7) [µg/mL] | IC50 ([6]; Table 5) [µg/mL] | IC50 [7] [µg/mL] | IC50 [8] [µg/mL] | IC50 [9] [nM] | IC50 [10] [µg/mL] | IC50 [11] [µg/mL] | IC50 [12] [µg/mL] | IC50 [13] [µg/mL] | IC50 [14] [µg/mL] | IC50 [15] [µg/mL] | IC50 ([16]; Table 4) [µg/mL] | IC50 [17] [µg/mL] | IC50 [18] [µg/mL] | IC50 [19] [nM] | IC50 ([20]; Table 6) [µg/mL] | other results
COc1cc2ncc(C#N)c(Nc3cccc(Cl)c3)c2cc1OC [Example 41, 4-[(3-Chlorophenyl)amino]-6,7-dimethoxy-3-quinolinecarbonitrile] | 7.87 (≈ 23.2 µM) | 8.29 (≈ 24.4 µM) | 17.5 (≈ 51.5 µM) | 25 (≈ 73.5 µM) | 20.6 (≈ 60.8 µM) | 24.8 (≈ 73.1 µM) | 6.25 (≈ 18.4 µM) | 7.73 (≈ 22.7 µM) | 1400 | 8.46 (≈ 24.9 µM) | 2.11 (≈ 6.21 µM) | 3.23 (≈ 9.52 µM) | 18.5 (≈ 54.4 µM) | 8.5 (≈ 25 µM) | 48.7 (≈ 143 µM) | 14.7 (≈ 43.1 µM) | 0.913 (≈ 2.69 µM) | 3.53 (≈ 10.4 µM) | 1500 | 0.961 (≈ 2.83 µM) | IC50 ([5]; Table 8): 0.48 µg/mL (≈ 1.41 µM); IC50 ([6]; Table 8): 6.86 µg/mL (≈ 20.2 µM); IC50 ([16]; Table 8): 2.23 µg/mL (≈ 6.56 µM); IC50 ([20]; Table 8): 1.33 µg/mL (≈ 3.91 µM); IC50 [21]: 6.13 µg/mL (≈ 18 µM); IC50 ([22]; Table 6): 0.813 µg/mL (≈ 2.39 µM); IC50 ([22]; Table 8): 0.24 µg/mL (≈ 0.706 µM); IC50 [23]: 2.92 µg/mL (≈ 8.61 µM); IC50 [24]: 4.09 µg/mL (≈ 12 µM); IC50 [25]: 6.26 µg/mL (≈ 18.4 µM); IC50 [26]: 14.1 µg/mL (≈ 41.6 µM); IC50 [27]: 200 nM; IC50 [28]: 4.21 µg/mL (≈ 12.4 µM); IC50 [29]: 7.25 µg/mL (≈ 21.3 µM)
COc1cc2ncc(C#N)c(Nc3cccc(C#N)c3)c2cc1OC [Example 45, 4-[(3-Cyanophenyl)amino]-6,7-dimethoxy-3-quinolinecarbonitrile] | 4.21 (≈ 12.8 µM) | > 100 | 88.9 (≈ 269 µM) | 100 (≈ 303 µM) | 60.5 (≈ 183 µM) | 57.8 (≈ 175 µM) | 39.3 (≈ 119 µM) | 8.66 (≈ 26.2 µM) | > 100000 | 72.1 (≈ 218 µM) | 0.911 (≈ 2.76 µM) | > 100 | > 100 | 30 (≈ 90.9 µM) | 100 (≈ 303 µM) | > 100 | 8.94 (≈ 27.1 µM) | 57.8 (≈ 175 µM) | 150 | 9.06 (≈ 27.4 µM) | IC50 [21]: > 100 µg/mL; IC50 ([22]; Table 6): 2.61 µg/mL (≈ 7.9 µM); IC50 [23]: 87.1 µg/mL (≈ 264 µM); IC50 [24]: > 100 µg/mL; IC50 [25]: 86.8 µg/mL (≈ 263 µM); IC50 [26]: > 100 µg/mL; IC50 [27]: 1670 nM; IC50 [28]: 79.7 µg/mL (≈ 241 µM); IC50 [29]: 89.7 µg/mL (≈ 271 µM)
